The target of the assay is T1, SARM1 (Homo sapiens, UniProt Q6SZW1).
T1 construct: made in house; host or cells: NRK1-HEK293T cells, transient transfection; cleared cell lysate used without purification
T1 sequence (Q6SZW1 with tags, fused parts or gaps): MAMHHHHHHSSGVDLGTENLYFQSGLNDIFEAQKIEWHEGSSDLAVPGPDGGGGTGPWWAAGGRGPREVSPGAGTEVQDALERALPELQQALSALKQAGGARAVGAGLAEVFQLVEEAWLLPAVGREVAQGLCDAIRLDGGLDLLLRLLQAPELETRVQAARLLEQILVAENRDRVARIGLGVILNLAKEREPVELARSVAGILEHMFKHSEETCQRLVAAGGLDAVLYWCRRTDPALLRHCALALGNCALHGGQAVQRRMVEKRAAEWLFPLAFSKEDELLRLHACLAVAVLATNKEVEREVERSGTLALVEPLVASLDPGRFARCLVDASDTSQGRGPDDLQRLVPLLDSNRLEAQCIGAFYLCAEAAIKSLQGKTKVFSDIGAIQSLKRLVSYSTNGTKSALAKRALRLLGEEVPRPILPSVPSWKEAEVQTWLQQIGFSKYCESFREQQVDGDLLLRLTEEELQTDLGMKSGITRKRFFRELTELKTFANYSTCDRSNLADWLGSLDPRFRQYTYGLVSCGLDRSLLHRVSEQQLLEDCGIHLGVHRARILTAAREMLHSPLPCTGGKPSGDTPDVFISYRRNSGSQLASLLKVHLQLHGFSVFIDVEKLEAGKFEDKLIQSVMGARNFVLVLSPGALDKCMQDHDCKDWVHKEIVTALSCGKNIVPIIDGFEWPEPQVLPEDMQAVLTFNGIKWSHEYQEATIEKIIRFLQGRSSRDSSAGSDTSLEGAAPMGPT
The assay is described as follows: ARM-SAM-TIR SARM1 IC50 assay (NADase activity, NAD+ cleavage, RapidFire mass spectrometry). Conditions: ARM-SAM-TIR lysate 5 μg/mL, 2 h pre-incubation with compound at room temperature, 5 μM NAD+, 2 hr incubation. Type of assay: biochemical. As to the method:
This Example describes an assay of ARM-SAM-TIR NADase activity and use of this assay to measure the efficacy of compounds of Formula I/II to block SARM1 mediated NAD+ cleavage. This assay was optimized in such a way as to characterize the efficacy of the compounds in Formula I/I to inhibit SARM1 activity and to calculate an IC50 value for each compound. This assay makes use of full length SARM1, which encompasses the ARM, SAM and TIR domains. […] NRK1-HEK293T cells were seeded onto 150 cm^2 plates at 20×10^6 cells per plate. The next day, the cells were transfected with […] ARM-SAM-TIR expression plasmid, SEQ ID NO: 1. The cultures were supplemented with 1 mM NR at time of transfection to minimize toxicity from ARM-SAM-TIR overexpression. Forty-eight hours after transfection, cells were harvested, pelleted by centrifugation at 1,000 rpm (Sorvall ST 16R centrifuge, Thermo Fisher), and washed once with cold PBS (0.01 M phosphate buffered saline NaCl 0.138 M; KCl 0.0027 M; pH 7.4). The cells were resuspended in PBS with protease inhibitors (cOmplete™ protease inhibitor cocktail, Roche product #11873580001) and cell lysates were prepared by sonication (Branson Sonifer 450, output=3, 20 episodes of stroke). The lysates were centrifuged (12,000×g for 10 min at 4° C.) to remove cell debris and the supernatants (containing ARM-SAM-TIR protein) were stored at −80° C. for later use in the in vitro ARM-SAM-TIR NADase assay (see below). Protein concentration was determined by the Bicinchoninic (BCA) method and used to normalize lysate concentrations. The enzymatic assay was performed in a 384-well polypropylene plate in Dulbecco's PBS buffer in a final assay volume of 20 μL. […] The reaction was initiated by addition of 5 μM final assay concentration of NAD+ as substrate. After a 2 hr room temperature incubation, the reaction was terminated with 40 μL of stop solution of 7.5% trichloroactetic acid in acetonitrile. The NAD+ and ADPR concentrations were analyzed by a RapidFire High Throughput Mass Spectrometry System (Agilent Technologies, Santa Clara, CA) using an API4000 triple quadrupole mass spectrometer (AB Sciex Framingham, MA).
The IC50 is the point on the concentration scale where inhibition reaches its midpoint. Turning to `O=C(NCc1ccc(Cl)cc1)c1nccc2c(-c3ccncc3)n[nH]c12` [Example 14], the IC50 is below 0.1 µM.

Take `C[C@@H](NC(=O)c1cccc2c(-c3ccncc3)n[nH]c12)c1ccc(Cl)cc1` [Example 15]: the IC50 was in the range of 0.1 to 1 µM.

Regarding `O=C(NCc1ccc(Cl)c(F)c1)c1cccc2c(-c3ccncc3)n[nH]c12` [Example 16], the IC50 is below 0.1 µM. Take `O=C(NCc1ccc(Cl)s1)c1cccc2c(-c3ccncc3)n[nH]c12` [Example 17]: the IC50 was below 0.1 µM. With `O=C(NCc1ccc(Cl)cc1)c1cccc2c(-c3cnc[nH]3)n[nH]c12` [Example 18] the figure was above 10 µM.

In the case of `O=C(NCc1ccc(Cl)cc1)c1cccc2c(-c3cncs3)n[nH]c12` [Example 19], the IC50 is above 10 µM.

Consider `Cn1cncc1-c1n[nH]c2c(C(=O)NCc3ccc(Cl)cc3)cccc12` [Example 20], for which the IC50 is above 10 µM. Then `O=C(NCc1ccc(Cl)cc1)c1cccc2c(-c3cnco3)n[nH]c12` [Example 21], with above 10 µM; and `Cc1ccc(C(=O)NCc2ccc(Cl)nc2)c2[nH]nc(-c3ccncc3)c12` [Example 24], with 1.01 to 5 µM. Then `Cc1cc(C(=O)NCc2ccc(Cl)nc2)c2[nH]nc(-c3ccncc3)c2c1` [Example 25], with 0.1 to 1 µM.

For the origin of these results see patent publication US12435084B2, “Indazole derivatives as inhibitors of SARM1” (Disarm Therapeutics, Inc., priority 2020, dated 2025).
